Test results: patent publication US20200352918A1, “COMPOUNDS AND METHODS FOR TREATING OR PREVENTING FIBROSIS” (priority 2019, published 2020)
Entries after “also recorded” stand apart in the source; their conditions may differ.

Tests used:
Type in all cases: cell-based, human
[1] = test system: iFA phenotype of mesenchymal-like cells on 13 kPa hydrogels; assay: iFA resolution screen (reversal of fibrosis) in the iFA model
Protocol: Signal-to-background (S/B) ratio, standard variation and variation coefficients were calculated as the signal of DMSO treated wells divided by the signal of the hit compound (AA5) treated wells. Z′ values were used to measure assay quality which was calculated by the formula of Z′=1−3(SDTotal+SDBackground)/(MeanTotal−MeanBackground)(Inglese et al., 2006) where SDTotal and MeanTotal are the standard deviation and mean of signal for DMSO treated wells, and SDBackground and MeanBackground are the standard deviation and mean of signal for AA5 treated wells. Data normalization and curve fitting were performed as previously reported (Kariv et al., 1999, J Biomol Screen 4, 27-32.). Z′ values were obtained for the number of cellular aggregates and also calculated a phenotypic cell index as the product of cell number x area/Log(number of iFA aggregates+5). Secondary screening using α-SMA and collagen deposition was employed to further ensure efficacy and resolution of the iFA phenotype of the compounds. For the resolution screen, cells were seeded in a 96-well plate as mentioned above and compounds were added at day 13 to analyze their capacity to resolve the iFA phenotype using the same readouts as above. Dose response experiments were carried out as in the secondary screen but with at least 12 steps of a 1:1 dilution resulting in final compound concentrations from 500 μM to high nanomolar ranges.
The primary assay involved plating together the iPSCs and Table 1 compounds sourced from the library on day 1 on the hydrogel and examining the phenotype on day 7 of the culture as described herein. The secondary screen repeated the assay using compound sourced commercially or from additional library materials. The dose response refers to a 20 point dose course that ranges from picomolar to millimolar concentrations. […] As described herein, the cellular phenotype parameters evaluated included size, fluorescence intensity of the iFA phenotype, the shape factor of the cells/aggregates, and the cells' viability in the presence of viability dyes (Calcein AM).

iFA model = assay: Proliferation by EdU labeling in the iFA model; conditions: AA5-prevention vs DMSO, 6 h EdU
Protocol: Cells were incubated with 10 μM EdU (Invitrogen) at specified time points of culture for 6 hrs, fixed with 4% PFA, and detected by staining with Alexa594-azide according to the manufacturer's instructions. The cells were additionally counterstained with Vimentin and/or α-SMA and DAPI.

[2] = test system: Idiopathic Pulmonary Fibrosis patient lung slices; assay: Ex vivo fibrotic lung slice culture (LSC) system
Protocol: The Milliplex human cytokine/chemokine Panel IV, human TIMP Panel 2, and human TGFβ 1,2,3 magnetic bead kits (EMD Millipore) were used per manufacturer's instructions. Prior to plating, all samples tested for human TGFβ only were activated and neutralized with 1.0 N HCl and 1.0 N NaOH, respectively. Briefly, 25 μl of undiluted or treated cell culture supernatant samples were mixed with 25 μl of magnetic beads and allowed to incubate overnight at 4° C. while shaking. After washing the plates with wash buffer in a Biotek ELx405 washer, 25 μl of biotinylated detection antibody was added and incubated for 1 hour at room temperature while shaking. 25 μl of streptavidin-phycoerythrin conjugate was then added to the reaction mixture and incubated for another 30 minutes at room temperature while shaking. Following additional washes, beads were resuspended in sheath fluid, and fluorescence was quantified using a Luminex 200 instrument. Similarly, a custom magnetic Luminex assay kit of select analytes (R&D Systems) was used per manufacturer's instructions. Cell culture supernatants were prepared with a 2-fold dilution. 50 μl of diluted sample were added to 50 μl of provided micro-particle cocktail and incubated for 2 hours at room temperature while shaking. After washing with wash buffer, 50 μl of biotin antibody cocktail was added and incubated for 1 hour at room temperature while shaking. Following additional washes, 50 μl of diluted Streptavidin-PE was then added for incubation for 30 minutes at room temperature while shaking. The plate was then washed again and the micro-particles resuspended in 100 μl wash buffer. After an additional 2-minute incubation while shaking, the data was acquired using a Luminex 200 instrument.
Conditioned media at different time points of progression of the phenotype, and on prevention and resolution drug treatments were collected and quantification of protein was performed using the IBL man HMGB1 ELISA kit or LSBio NPTX1 ELISA kits per manufacturer's instructions. 10 μl of each supernatant sample was added to anti-HMGB1 polyclonal antibody-coated plate and incubated for 20 hours at 37° C. All liquid was then removed and the plate manually washed 5 times with wash buffer. 100 μl of enzyme conjugate was then added and incubated for 2 hours at room temperature. After washing again, color solution was added at 100 μl per well and incubated for 30 minutes at room temperature. Following an additional five washes, the plate was incubated with 90 μl of TMB substrate for another 15 minutes at 37° C. in the dark. The reaction was then stopped by addition 100 μl of stop solution. Absorbance was measured at 450 nm using a SpectraMAX Plate Reader. Data was analyzed using SoftMax Pro software.
In-vitro cultures of PF and cells in the iFA model were washed once with PBS and total RNA from the samples were extracted using the RNeasy Mini Kit (Qiagen) according to the manufacturer's instructions. For the lung slice cultures (LSC), tissues were snap-frozen after treatment and stored at −80° C. until RNA isolation. Lung slices were homogenized using a handheld homogenizer and passing the homogenate through a Qiashredder (Qiagen). Total RNA from the LSC and cells from the disease model were extracted using the RNeasy Mini Kit (Qiagen) according to the manufacturer's instructions. The RNA concentrations were measured on a NanoDrop ND-1000 spectrophotometer. Single-stranded cDNA was synthesized from 200 ng of total RNA using Superscript IV and random hexamer primers (Invitrogen) in a volume of 20 μl. cDNA was then used for qRT-PCR analysis. PCR reactions were performed using Taqman Gene Expression Assay mix (Applied Biosystems) according to the manufacturer's instructions.
All human samples were obtained in accordance with institute IRB. Tissue for lung slice experiments was obtained from patients with Idiopathic Pulmonary Fibrosis (IPF) at the time of lung transplant. […]

Cc1c(C(=O)Nc2nc3ccccc3s2)sc2nc3cc4c(cc3cc12)OCO4 [AA5]
Levels of Collagen I and α-SMA (resolution of iFA phenotype) ([1]; AA5-resolution): reduction
Reversal of fibrosis ([1]; phenotype formed over 10 days, then compounds added): Yes
Proliferation (EdU) (iFA model): no effect on proliferation; also recorded: did not display any significant difference in the proliferation rate
Secretion of matrix degrading proteases MMP-9 and uPA ([2]; 10 μM AA5, 48 hours): increased secretion
ACTA-2, COL1A2 and TGF-β3 mRNA expression ([2]; 10 μM AA5, 48 hours, vs DMSO, not TGF-β1/2): significantly reduced
Secreted TGF-β3, TIMP-4 and POSTN protein ([2]; 10 μM AA5, 48 hours, not TGF-β1/2): decreased levels
NPTX1 mRNA and protein level ([2]; AA5-treated LSCs): upregulated
Scavenger receptor CD163L1 ([2]; AA5-treated LSCs): upregulated and secreted
HMGB1 immunostaining ([2]; AA5-treated LSCs vs DMSO): exclusively nuclear staining
Secreted HMGB1 (luminex) ([2]; AA5-treated LSCs, 48 hours): markedly decreased
Reduction of fibrosis-initiating SSEA4+ cells ([2]; AA5-treated LSCs, p value <0.001): > 50%
